Measured values as given in US20070123537A1, “Quinazoline derivatives for the treatment of herpesviral infections” (GPC Biotech AG, priority 2003, published 2007).
Entries after “also recorded” stand apart in the source; their conditions may differ. Where two headings read alike, the source gives them in different places.

How the values were obtained:
viral kinase UL-97 = biological target: T1, viral kinase UL-97 (Human cytomegalovirus, UniProt P16788); assay: UL97 Kinase-Assay on Immobilon Plate; assay type: biochemical
T1 construct: The UL-97 gene was cloned into a baculovirus vector in order to produce GST (glutathione S-transferase) fusion protein; GST; made in house; host or cells: Sf9 insect cells (baculovirus)
T1 sequence (P16788 whole entry, the tested form may be a part): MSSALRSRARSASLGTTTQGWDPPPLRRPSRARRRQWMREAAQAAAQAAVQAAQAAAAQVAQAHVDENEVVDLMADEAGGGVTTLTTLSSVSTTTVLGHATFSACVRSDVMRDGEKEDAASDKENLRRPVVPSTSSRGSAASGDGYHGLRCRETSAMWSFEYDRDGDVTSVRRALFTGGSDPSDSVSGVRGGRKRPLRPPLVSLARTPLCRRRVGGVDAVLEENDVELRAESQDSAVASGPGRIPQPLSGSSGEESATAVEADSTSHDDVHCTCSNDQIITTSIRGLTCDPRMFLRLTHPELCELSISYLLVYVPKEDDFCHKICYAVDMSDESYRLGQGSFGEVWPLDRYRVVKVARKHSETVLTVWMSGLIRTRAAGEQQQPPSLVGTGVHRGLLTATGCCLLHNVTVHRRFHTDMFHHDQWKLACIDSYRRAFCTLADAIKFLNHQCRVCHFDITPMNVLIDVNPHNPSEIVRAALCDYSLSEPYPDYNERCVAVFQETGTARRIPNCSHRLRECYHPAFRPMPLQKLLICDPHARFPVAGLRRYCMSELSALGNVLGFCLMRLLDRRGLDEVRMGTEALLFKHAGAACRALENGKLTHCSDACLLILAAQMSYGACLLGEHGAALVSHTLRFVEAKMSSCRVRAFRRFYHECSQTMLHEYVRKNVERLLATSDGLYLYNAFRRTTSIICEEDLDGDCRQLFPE
Protocol: UL97 Kinase-Assay on Immobilon Plate
The effect of quinazoline derivatives on the activity of the viral kinase UL-97 was tested. This kinase is derived from human cytomegalovirus (HCMV) (Marschall, M., et al., J. Gen Virol. 2001, 82,1439-1450.). The UL-97 gene was cloned into a baculovirus vector in order to produce GST (glutathione S-transferase) fusion protein. Insect cells (Sf9) were infected and GST-UL-97 purified via glutathione affinity columns according to standard procedures.
The UL-97 kinase reaction was performed as described (Marschall M. et aL, J. Gen. Virol. 2001, 82, 1439-1450). Briefly, 10 μl Assay buffer (3 μM ATP, 60 μg/ml myelin basic protein (MBP) as substrate), 1,0 μCi gamma[^33P]ATP and 10 μp, Basic buffer (20mM Tris-HCl 7.5, 500 μM MnCl2, 1 mM DTT (dithiothreitol)) were given to the test tube before adding various concentrations of the quinazoline derivatives. The reaction was started by adding 0.2 μl UL97 kinase, purified from infected Sf9-insect cells as described above. The total volume was adjusted with Basic buffer to a final volume of 30 μl. The reaction mix was incubated for 1 hr at 30° C. For negative control, 10 μl 0.1 M EDTA (ethylene diamine tetraacetate) was added to reaction mix before addition of UL-97 protein kinase. The reaction was stopped by addition of 10 μl 0.1 M EDTA.
Measuring Incorporation of Radioactivity
An Immobilon plate (Millipore) was rinsed with 50 μl methanol/well. Following addition of 100 μl 0.1 M EDTA, 20 μl of each kinase reaction mix was added to one well of the Immobilon plate. Each well was washed 4× with 250 μl 0.75% phosphoric acid and 1× with 50 μl methanol. After addition of 50 μl scintillation cocktail (Roth, Germany) per well incorporation of radioactivity was measured using a Betareader (Wallac) and enzymatic activity calculated.

HCMV AD-169 = assay: HCMV infection of HFFs, reporter gene based antiviral assay; assay type: cell-based, Human Cytomegalovirus (HCMV); details: for HCMV AD 169 Replication [%] of control at 3 μM: 3 μM compound, HFFs, reporter gene activity after seven days; for IC50: replication of HCMV strain AD 169 in HFF cells, read-out: HCMV AD 169 IC 50
Protocol: To examine the effect of the quinazoline derivatives on HCMV replication, HCMV infections were performed in a cellular system.
Human foreskin fibroblasts (HFFs) were grown to subconfluency in 12 well plates and infected with 0.25 tissue culture infectious doses of HCMV AD-169 carrying a reporter gene (HCMV based antiviral assay). Quinazoline derivatives (stocks in DMSO (Dimethylsulfoxide)) were diluted in culture medium to the concentrations indicated and added to the cells immediately after virus adsorption. The success of infection (reporter gene expressing cells) and the lack of cytotoxicity of the compound (confluent cell layer) was monitored by microscopy. After seven days, cell layers were harvested, lysed and subjected to the automated fluorometry measurement of reporter gene activity. Each panel refers to a determination in quadruplicate (infection in duplicate, lysate preparation and measurement in duplicate).

UL 97 = biological target: T2, UL 97 (Human cytomegalovirus, UniProt P16788); assay: UL 97 in-cell activity: protection of HEK 293 cells ectopically expressing UL 97 against toxic GCV; assay type: cell-based, human cytomegalovirus (HCMV); details: HEK 293 cells expressing UL 97
T2 construct: expressed in transfected cells; host or cells: HEK 293
T2 sequence (P16788 whole entry): as the sequence (P16788 whole entry, the tested form may be a part) above
Protocol: (§1) Furthermore, clinical isolates of HCMV like R5, R3 and R2 were used for the infection of HFFs in a plaque reduction assay under the conditions described above. Parallel experiments on phenotype characterization , gene sequencing and UL 97-in-cell-activity assay (GCV phosphorylation) with cloned UL 97 were performed (Marschall, M., et al., J. Gen Virol. 2001, 82, 1439-1450).
Furthermore, (IC50)-values of HCMV replication was measured for some compounds in a cellular system. Some quinazoline derivatives protect HEK 293 cells ectopially expressing UL 97 against toxic concentrations of GCV (10 and 20 μM respectively).

HEK 293 cells = assay: Toxicity assay in HEK 293 cells; assay type: cell-based
Protocol: Toxicity Assay: Toxicity of the quinazoline derivatives was measured by incubating HEK 293 cells with 10 μM of each derivative. The corresponding amount of DMSO served as control.

HCMV mutant AD169deIUL97 = assay: Plaque reduction assay with UL97-deleted HCMV mutant; assay type: cell-based, Human Cytomegalovirus (HCMV); details: 50 nM NGIC-I, 10 μM compound 37 or 2 μM CDV
Protocol: FIG. 3: Replication of UL97-deleted HCMV in the presence of pUL97 inhibitors. Plaque assays were performed with HCMV mutant AD169deIUL97, carrying a deletion in the UL97 gene, in the presence of 0.1% DMSO (no inhib.), 50 nM NGIC-I, 10 μM compound 37 or 2 μM CDV as indicated.
To confirm the conclusion that pUL97 is the target for the antiviral activity of quinazolines, we performed an experiment with an UL97-deleted mutant of HCMV (AD169deIUL97) (Prichard, M. N., Gao, N., Jairath, S., Mulamba, G., Krosky, P., Coen, D. M., Parker, B. O., and Pari, G. S., J. Virol. […], 73, 5663).

[1] = tested on: HCMV reference strain AD 169; assay: Plaque reduction assay, HCMV AD 169 in HFFs; assay type: cell-based, Human Cytomegalovirus (HCMV); details: Human betaherpesvirus 5, 192 h, read-out: IC50 in the plaque reduction assay
Protocol: (§2) HCMV reference strain AD 169 was used at an MOI (multiplicity of infection) of 0.004 for the infection of HFFs in 12 well plates as described in FIG. 2. After virus adsorption, the infected cell layers were overlayed with fresh medium containing the compound concentration as indicated in FIG. 2 and 0.3% agarose. After eight days postinfection, a staining of virus plaques was performed by the use of 1% crystal violet. Quantification was achieved by microscopic counting in quadruplicate (infection in duplicate, counting in duplicate).

clinical HCMV strain R2 = assay: Plaque reduction assay, clinical isolate R2; assay type: cell-based, Human Cytomegalovirus (HCMV); details: Human betaherpesvirus 5; GCV- and CDV-resistant strain; read-out: IC 50, clinical strain R2
Protocol: as §2, §1
(§3) Three clinical HCMV strains were investigated on replication in the presence of the selected quinazoline derivatives 3,4-Dichloro-phenyl)-quinazolin-4-yl-amine (compound 37), (3,4-Dichloro-phenyl)-(6-methyl-quinazolin-4-yl)-amine (compound 49) and (4-Bromo-phenyl)-quinazolin-4-yl-amine (compound 98).

clinical HCMV isolate R3 = assay: Plaque reduction assay, clinical isolate R3; assay type: cell-based, Human Cytomegalovirus (HCMV); details: partially GCV resistant, CDV sensitive isolate; read-out: IC 50, clinical isolate R3
Protocol: as §2, §1, §3

clinical HCMV isolate R5 = assay: Plaque reduction assay, clinical isolate R5; assay type: cell-based, Human Cytomegalovirus (HCMV); details: GCV sensitive and CDV sensitive isolate; read-out: IC 50, clinical isolate R5
Protocol: as §2, §1, §3

[2] = 3 μM ATP, MBP substrate, read-out: UL 97 IC 50
[3] = Human betaherpesvirus 5, AD169, HFF
[4] = HCMV AD 169, HFFs, eight days postinfection

Compound | inhibition of UL 97-kinase activity (in words) (viral kinase UL-97) | HCMV AD 169 Replication [%] of control at 3 μM (HCMV AD-169) | IC50 (viral kinase UL-97; [2]) | IC50 (HCMV AD-169; [3]) | further results
CCc1cccc(Nc2ncnc3ccc(C)cc23)c1 [Compound 89, (3-Ethyl-phenyl)-(6-methyl-quinazolin-4-yl)-amine] | potent inhibitors |  |  |  | 
c1ccc(Nc2ncnc3ccccc23)cc1 [Compound 84, Phenyl-quinazolin-4-yl-amine] |  |  |  |  | IC50 (viral kinase UL-97): 300 nM
Cc1ccc2ncnc(Nc3ccc(Br)cc3)c2c1 [Compound 43, (4-Bromo-phenyl)-(6-methyl-quinazolin-4-yl)-amine] | potent inhibitors | 20% | > 100 nM |  | 
Clc1ccc(Nc2ncnc3ccccc23)cc1Cl [Compound 37, (3,4-Dichloro-phenyl)-quinazolin-4-yl-amine] | potent inhibitors | 45% | 40 nM | 2000 to 3000 nM | IC50 (HCMV AD-169): 3000 nM; UL 97 GCV [%] growth at conc. [μM] (UL 97; at 10 μM): 80%; UL 97 GCV [%] growth at conc. [μM] (UL 97; at 20 μM): 50%; Viability [%] at 10 μM (HEK 293 cells): 77%; effect on replication of AD169deIUL97 (plaque assay) (HCMV mutant AD169deIUL97): only little or no effect; effect on replication of AD169deIUL97 (plaque assay) (HCMV mutant AD169deIUL97; listed as compound 37): not; IC50 [1, 4]: 2500 to 5000 nM
Cc1ccc2ncnc(Nc3ccc(Cl)c(Cl)c3)c2c1 [Compound 49, (3,4-Dichloro-phenyl)-(6-methyl-quinazolin-4-yl)-amine] | potent inhibitors | 20% | 20 nM | 2000 to 3000 nM | IC50 (HCMV AD-169): 2500 nM; UL 97 GCV [%] growth at conc. [μM] (UL 97; at 10 μM): 80% at 10 μM; Viability [%] at 10 μM (HEK 293 cells): 78%; IC50 [1]: 2500 to 5000 nM
Ic1ccc(Nc2ncnc3ccccc23)cc1 [Compound 72, (4-lodo-phenyl)-quinazolin-4-yl-amine] | potent inhibitors |  | 200 nM |  | 
Nc1nc(O)c2ncn(COC(CO)CO)c2n1 [ganciclovir] |  |  |  | 3000 to 4000 nM | IC50 (clinical HCMV strain R2): 34000 nM; IC50 (clinical HCMV isolate R3): 20000 nM; IC50 (clinical HCMV isolate R5): 4100 nM; IC50 [1, 4]: 4000 to 6000 nM
Nc1ccn(C[C@@H](CO)OCP(=O)(O)O)c(=O)n1 [CDV, Cidofovir] |  |  |  |  | IC50 (clinical HCMV strain R2): 4200 nM; IC50 (clinical HCMV isolate R3): 350 nM; effect on replication of AD169deIUL97 (plaque assay) (HCMV mutant AD169deIUL97): complete inhibition; also recorded: efficiently blocked; IC50 (clinical HCMV isolate R5): 700 nM
Fc1ccc2c(Nc3cccc(Cl)c3)ncnc2c1 [Compound 70, (3-Chloro-phenyl)-(7-fluoro-quinazolin-4-yl)-amine] | potent inhibitors |  |  |  | 
Brc1ccc(Nc2ncnc3ccccc23)cc1 [Compound 98, (4-Bromo-phenyl)-quinazolin-4-yl-amine] | potent inhibitors | 30% | 170 nM | 2000 to 3000 nM | IC50 (HCMV AD-169): 2000 nM; UL 97 GCV [%] growth at conc. [μM] (UL 97; at 10 μM): 80%; UL 97 GCV [%] growth at conc. [μM] (UL 97; at 20 μM): 60%; Viability [%] at 10 μM (HEK 293 cells): 75%; IC50 [1, 4]: 2500 to 5000 nM
Fc1ccc(Nc2ncnc3ccccc23)cc1 [Compound 88, (4-Fluoro-phenyl)-quinazolin-4-yl-amine] | potent inhibitors |  | 200 nM |  | 
Clc1cccc(Nc2ncnc3ccccc23)c1 [Compound 87, (3-Chloro-phenyl)-quinazolin-4-yl-amine] | potent inhibitors |  | 700 nM |  | 
COc1cc2ncnc(Nc3ccc(Br)cc3)c2cc1OC [Compound 31, (4-Bromo-phenyl)-(6,7-dimethoxy-quinazolin-4-yl)-amine] | potent inhibitors | 60% | 1200 nM |  | 
